According to ChEMBL document CHEMBL1201862, “PubChem BioAssay data set” (2004):
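Protocol summary: plate cells (96-well), add compound at 5 concentrations, incubate 48 h, interpolate endpoints linearly. GI50 marks 50% less growth.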 Active and inactive are the calls of the source. Cut-off read from the data, not from the text of the source: active = GI50 up to about 1.1 µM and inactive = higher.

Tests used:
Assay in all cases: inhibition of tumour cell growth, NCI panel, 48 h
786-0 = tested on: 786-0
A549 = tested on: A549
ACHN = tested on: ACHN
BT-549 = tested on: BT-549
CAKI-1 = tested on: CAKI-1
CCRF-CEM = tested on: CCRF-CEM
COLO 205 = tested on: COLO 205
DU-145 = tested on: DU-145
EKVX = tested on: EKVX
HCC 2998 = tested on: HCC 2998
HCT-116 = tested on: HCT-116
HCT-15 = tested on: HCT-15
HOP-62 = tested on: HOP-62
HOP-92 = tested on: HOP-92
HT-29 = tested on: HT-29
Hs-578T = tested on: Hs-578T
IGROV-1 = tested on: IGROV-1
K562 = tested on: K562
KM12 = tested on: KM12
LOX IMVI = tested on: LOX IMVI
M14 = tested on: M14
MCF7 = tested on: MCF7
MDA-MB-231 = tested on: MDA-MB-231
MDA-MB-435 = tested on: MDA-MB-435
MDA-N = tested on: MDA-N
MOLT-4 = tested on: MOLT-4
NCI-H23 = tested on: NCI-H23
NCI-H460 = tested on: NCI-H460
NCI-H522 = tested on: NCI-H522
NCI/ADR-RES = tested on: NCI/ADR-RES
OVCAR-3 = tested on: OVCAR-3
OVCAR-4 = tested on: OVCAR-4
OVCAR-5 = tested on: OVCAR-5
OVCAR-8 = tested on: OVCAR-8
PC-3 = tested on: PC-3
RXF 393 = tested on: RXF 393
SF-268 = tested on: SF-268
SF-295 = tested on: SF-295
SF-539 = tested on: SF-539
SK-MEL-2 = tested on: SK-MEL-2
SK-MEL-5 = tested on: SK-MEL-5
SK-OV-3 = tested on: SK-OV-3
SN12C = tested on: SN12C
SNB-19 = tested on: SNB-19
SNB-75 = tested on: SNB-75
SR = tested on: SR
SW-620 = tested on: SW-620
TK-10 = tested on: TK-10
U-251 = tested on: U-251
UACC-257 = tested on: UACC-257
UACC-62 = tested on: UACC-62
UO-31 = tested on: UO-31

**Q.** For `COc1c(C)c(C/C=C(\C)CC/C=C(\C)CC/C=C(\C)CCC=C(C)C)c(OC)c(OC)c1OC`, which GI50 (786-0) is on record?
**A.** > 100 µM (inactive)

**Q.** And the GI50 (A549)?
**A.** > 100 µM (inactive)

**Q.** What about the GI50 (ACHN) of the same molecule?
**A.** > 100 µM (inactive)

**Q.** What about the GI50 (BT-549) of the same molecule?
**A.** > 100 µM (inactive)

**Q.** And the GI50 (CAKI-1)?
**A.** > 100 µM (inactive)

**Q.** What about the GI50 (CCRF-CEM) of the same molecule?
**A.** > 100 µM (inactive)

**Q.** And the GI50 (COLO 205)?
**A.** > 100 µM (inactive)

**Q.** And the GI50 (DU-145)?
**A.** > 100 µM (inactive)

**Q.** What about the GI50 (EKVX) of the same molecule?
**A.** > 100 µM (inactive)

**Q.** And the GI50 (HCC 2998)?
**A.** > 100 µM (inactive)

**Q.** What about the GI50 (HCT-116) of the same molecule?
**A.** > 100 µM (inactive)

**Q.** And the GI50 (HCT-15)?
**A.** > 100 µM

**Q.** What about the GI50 (HOP-62) of the same molecule?
**A.** > 100 µM (inactive)

**Q.** What about the GI50 (HOP-92) of the same molecule?
**A.** > 100 µM (inactive)

**Q.** What about the GI50 (HT-29) of the same molecule?
**A.** > 100 µM (inactive)

**Q.** What about the GI50 (Hs-578T) of the same molecule?
**A.** > 100 µM (inactive)

**Q.** What about the GI50 (IGROV-1) of the same molecule?
**A.** > 100 µM (inactive)

**Q.** And the GI50 (K562)?
**A.** > 100 µM (inactive)

**Q.** And the GI50 (KM12)?
**A.** > 100 µM (inactive)

**Q.** What about the GI50 (LOX IMVI) of the same molecule?
**A.** > 100 µM (inactive)

**Q.** And the GI50 (M14)?
**A.** > 100 µM (inactive)

**Q.** And the GI50 (MCF7)?
**A.** > 100 µM (inactive)

**Q.** And the GI50 (MDA-MB-231)?
**A.** > 100 µM (inactive)

**Q.** And the GI50 (MDA-MB-435)?
**A.** > 100 µM (inactive)

**Q.** And the GI50 (MDA-N)?
**A.** > 100 µM (inactive)

**Q.** What about the GI50 (MOLT-4) of the same molecule?
**A.** > 100 µM (inactive)

**Q.** And the GI50 (NCI-H23)?
**A.** > 100 µM (inactive)

**Q.** What about the GI50 (NCI-H460) of the same molecule?
**A.** > 100 µM (inactive)

**Q.** And the GI50 (NCI-H522)?
**A.** > 100 µM (inactive)

**Q.** And the GI50 (NCI/ADR-RES)?
**A.** > 100 µM (inactive)

**Q.** What about the GI50 (OVCAR-3) of the same molecule?
**A.** > 100 µM (inactive)

**Q.** And the GI50 (OVCAR-4)?
**A.** > 100 µM (inactive)

**Q.** What about the GI50 (OVCAR-5) of the same molecule?
**A.** > 100 µM (inactive)

**Q.** What about the GI50 (OVCAR-8) of the same molecule?
**A.** > 100 µM (inactive)

**Q.** What about the GI50 (PC-3) of the same molecule?
**A.** > 100 µM (inactive)

**Q.** And the GI50 (RXF 393)?
**A.** > 100 µM (inactive)

**Q.** And the GI50 (SF-268)?
**A.** > 100 µM (inactive)

**Q.** And the GI50 (SF-295)?
**A.** > 100 µM (inactive)

**Q.** And the GI50 (SF-539)?
**A.** > 100 µM (inactive)

**Q.** And the GI50 (SK-MEL-2)?
**A.** > 100 µM (inactive)

**Q.** And the GI50 (SK-MEL-5)?
**A.** > 100 µM (inactive)

**Q.** And the GI50 (SK-OV-3)?
**A.** > 100 µM (inactive)

**Q.** What about the GI50 (SN12C) of the same molecule?
**A.** > 100 µM (inactive)

**Q.** And the GI50 (SNB-19)?
**A.** > 100 µM (inactive)

**Q.** And the GI50 (SNB-75)?
**A.** > 100 µM (inactive)

**Q.** What about the GI50 (SR) of the same molecule?
**A.** > 100 µM (inactive)

**Q.** And the GI50 (SW-620)?
**A.** > 100 µM (inactive)

**Q.** And the GI50 (TK-10)?
**A.** > 100 µM (inactive)

**Q.** And the GI50 (U-251)?
**A.** > 100 µM (inactive)

**Q.** And the GI50 (UACC-257)?
**A.** > 100 µM (inactive)

**Q.** And the GI50 (UACC-62)?
**A.** > 100 µM (inactive)

**Q.** And the GI50 (UO-31)?
**A.** > 100 µM (inactive)
